Laboratory results: the NIST ThermoML archive (doi:10.1016/j.jct.2019.04.018)
Numbers after ± are expanded uncertainties.

Columns and labels:
[1] = 100 kPa, Liquid; for viscosity: Capillary tube (Ostwald / Ubbelohde) method; for speed of sound: Frequency=2 MHz, Single path-length method; for mass density: Vibrating tube method
[2] = xn = mol fraction of the nth substance listed; details: 100 kPa, Liquid; for viscosity: Capillary tube (Ostwald / Ubbelohde) method; for speed of sound: Frequency=2 MHz, Single path-length method; for mass density: Vibrating tube method

C=COCCCC [1-(ethenyloxy)butane]
[1]
Details	mass density [kg/m3]	speed of sound [m/s]	viscosity [mPa·s]
303.15 K	769 ± 1.2	1086 ± 6	0.386 ± 0.015
308.15 K	763.9 ± 1.2	1076 ± 6	0.373 ± 0.015
313.15 K	758.8 ± 1.2	1066 ± 6	0.352 ± 0.015

COc1ccccc1 [anisole]
[1]
Details	mass density [kg/m3]	speed of sound [m/s]	viscosity [mPa·s]
303.15 K	984.4 ± 1.1	1386 ± 5	0.929 ± 0.015
308.15 K	979.8 ± 1.1	1366 ± 5	0.849 ± 0.015
313.15 K	975 ± 1.1	1348 ± 5	0.788 ± 0.015

COc1ccccc1 [anisole] + C=COC(C)=O
[2], x2 = 0
Details	mass density [kg/m3]	speed of sound [m/s]	viscosity [mPa·s]
303.15 K	984.4 ± 1.1	1386 ± 5	0.929 ± 0.015
308.15 K	979.8 ± 1.1	1366 ± 5	0.849 ± 0.015
313.15 K	975 ± 1.1	1348 ± 5	0.788 ± 0.015

CC(C)OC(C)C [diisopropyl ether]
[1]
Details	mass density [kg/m3]	speed of sound [m/s]	viscosity [mPa·s]
303.15 K	713.1 ± 1.2	982 ± 6	0.301 ± 0.014
308.15 K	707.9 ± 1.2	962 ± 6	0.287 ± 0.014
313.15 K	702.5 ± 1.2	942 ± 6	0.276 ± 0.014

CC(C)OC(C)C [diisopropyl ether] + C=COC(C)=O
[2], x2 = 0
Details	mass density [kg/m3]	speed of sound [m/s]	viscosity [mPa·s]
303.15 K	713.1 ± 1.2	982 ± 6	0.301 ± 0.014
308.15 K	707.9 ± 1.2	962 ± 6	0.287 ± 0.014
313.15 K	702.5 ± 1.2	942 ± 6	0.276 ± 0.014

C=COC(C)=O [vinyl acetate]
[1]
Details	mass density [kg/m3]	speed of sound [m/s]	viscosity [mPa·s]
303.15 K	919.4 ± 1.1	1092 ± 5	0.388 ± 0.014
308.15 K	913.5 ± 1.1	1074 ± 5	0.37 ± 0.014
313.15 K	907.3 ± 1.1	1054 ± 5	0.352 ± 0.014

C=COC(C)=O [vinyl acetate] + C=COCCCC
[2], x1 = 1
Details	mass density [kg/m3]	speed of sound [m/s]	viscosity [mPa·s]
303.15 K	919.4 ± 1.1	1092 ± 5	0.388 ± 0.014
308.15 K	913.5 ± 1.1	1074 ± 5	0.37 ± 0.014
313.15 K	907.3 ± 1.1	1054 ± 5	0.352 ± 0.014
